Measurements: paper PMC9865589, “Synthesis and Evaluation of Novel S-alkyl Phthalimide- and S-benzyl-oxadiazole-quinoline Hybrids as Inhibitors of Monoamine Oxidase and Acetylcholinesterase” (Pharmaceuticals, 2022)
“And” between values parts separate entries of the source, which are not always exact repeats. Identical values can stand only once.

What was measured:
Assay type in all cases: biochemical
[1] = molecular target: AChE (Homo sapiens, UniProt P22303); assay: biochemical; settings: for IC50: average ± SEM, triplicate
AChE, sequence (P22303 32-614): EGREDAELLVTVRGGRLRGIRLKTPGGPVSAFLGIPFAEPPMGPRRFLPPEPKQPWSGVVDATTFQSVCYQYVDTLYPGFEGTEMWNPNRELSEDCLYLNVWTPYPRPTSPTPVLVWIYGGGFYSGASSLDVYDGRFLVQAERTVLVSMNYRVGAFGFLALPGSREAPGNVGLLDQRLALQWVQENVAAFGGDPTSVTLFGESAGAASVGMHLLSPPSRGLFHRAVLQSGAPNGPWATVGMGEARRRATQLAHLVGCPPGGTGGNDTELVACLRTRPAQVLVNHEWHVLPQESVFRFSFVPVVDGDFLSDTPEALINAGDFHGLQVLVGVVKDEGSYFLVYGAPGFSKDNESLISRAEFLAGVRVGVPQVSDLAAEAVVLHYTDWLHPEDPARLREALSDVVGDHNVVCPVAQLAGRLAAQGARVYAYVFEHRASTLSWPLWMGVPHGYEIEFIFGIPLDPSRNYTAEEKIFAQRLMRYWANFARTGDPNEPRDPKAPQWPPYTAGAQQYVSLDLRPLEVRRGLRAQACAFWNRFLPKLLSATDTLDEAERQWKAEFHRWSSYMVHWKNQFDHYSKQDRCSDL
Text: (§1) Different test chemicals and substrate concentrations were utilized in the kinetic experiments. Lineweaver-Burk plots were employed to determine the kind of inhibition, and they were used to track how the inhibitor affected Km and Vmax by plotting the reciprocal reaction rate against the reciprocal substrate concentrations.
All substances were put through a little modified version of Ellman’s test to gauge the effectiveness of their ability to inhibit acetylcholinesterase (AChE). Released thiocholine reacts with chromogenic reagent 5,5-dithio-bis (2-nitrobenzoic) acid to produce a colorful product […]. At a concentration of 2.5 units/mL, the enzyme solutions were prepared. The assay volume was 100 μL, having 60 μL buffer and 10 μL test compound (0.1 mM, 10% DMSO), pursued by inserting enzyme 10 μL […]. The mixture was incubated for 10 min. 10 μL of the substrate and 10 μL of DTNB were added to the mixture.

[2] = molecular target: T1, MAO-A (Homo sapiens, UniProt P21397); assay: Monoamine oxidase A inhibition assay (Amplex red fluorescence); settings: for IC50: average ± SEM, triplicate
T1 sequence (P21397 1-527): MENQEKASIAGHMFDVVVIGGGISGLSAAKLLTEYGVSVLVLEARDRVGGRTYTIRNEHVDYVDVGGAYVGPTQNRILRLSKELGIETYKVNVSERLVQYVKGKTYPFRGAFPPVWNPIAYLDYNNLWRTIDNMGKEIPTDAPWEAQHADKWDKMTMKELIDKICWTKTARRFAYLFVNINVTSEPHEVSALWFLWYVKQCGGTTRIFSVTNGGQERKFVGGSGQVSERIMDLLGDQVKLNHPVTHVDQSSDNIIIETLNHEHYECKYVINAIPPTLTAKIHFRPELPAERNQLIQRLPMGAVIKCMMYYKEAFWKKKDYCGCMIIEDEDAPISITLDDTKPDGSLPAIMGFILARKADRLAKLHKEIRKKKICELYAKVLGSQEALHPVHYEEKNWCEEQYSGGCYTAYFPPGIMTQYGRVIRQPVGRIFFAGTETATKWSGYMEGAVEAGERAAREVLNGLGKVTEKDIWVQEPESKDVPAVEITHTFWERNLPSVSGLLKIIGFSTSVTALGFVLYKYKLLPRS
Experimental: as §1
(§2) According to the previously reported protocol, the synthesized compounds’ action on the monoamine oxidase (MAO-A and MAO-B) enzymes was tested. The enzyme was produced just 15 to 20 min before, at a cold room temperature. […] White 96-well plates were utilized for the test. The assay volume was 100 μL, having 60 μL buffer (pH 7.4) and 10 μL test compound (0.1 mM, 10% DMSO), followed by adding enzyme 10 μL (26 μg of protein for MAO-A and 5.0 μg for MAO-B). For MAO-A and MAO-B, the mixture was incubated for 20 and 15 min, respectively. The mixture was then given 10 μL of the substrate and 10 μL of newly prepared Amplex red. […] The non-linear curve fitting tool PRISM 5.0 (GraphPad, San Diego, CA, USA) was employed to compute IC50 values.

[3] = molecular target: T2, MAO-B (Homo sapiens, UniProt P27338); assay: biochemical
T2 sequence (P27338 1-520): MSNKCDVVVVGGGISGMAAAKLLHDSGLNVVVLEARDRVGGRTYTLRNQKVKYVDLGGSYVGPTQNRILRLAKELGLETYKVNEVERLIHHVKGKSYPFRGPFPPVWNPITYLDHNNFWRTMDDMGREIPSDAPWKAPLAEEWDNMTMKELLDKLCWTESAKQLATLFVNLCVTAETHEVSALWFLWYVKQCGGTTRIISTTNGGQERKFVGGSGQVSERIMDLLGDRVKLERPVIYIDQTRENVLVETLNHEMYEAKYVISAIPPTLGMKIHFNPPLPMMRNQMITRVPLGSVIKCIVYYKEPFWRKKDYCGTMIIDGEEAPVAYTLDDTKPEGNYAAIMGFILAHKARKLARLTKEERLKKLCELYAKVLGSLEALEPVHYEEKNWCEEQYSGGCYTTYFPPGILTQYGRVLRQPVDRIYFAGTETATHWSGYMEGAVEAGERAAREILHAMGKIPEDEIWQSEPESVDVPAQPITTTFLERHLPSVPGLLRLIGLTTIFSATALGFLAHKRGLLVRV
Experimental: as §1, §2

[4] = Lineweaver-Burk plots, Vmax unaffected, Km increased

Q: How did the IC50 [1] turn out when O=C1c2ccccc2C(=O)N1CSc1nnc(-c2cc(-c3ccccc3)nc3ccccc23)o1 [Compound 5a, 2-((5-(2-Phenylquinolin-4-yl)-1,3,4-oxadiazol-2-ylthio)methyl)isoindoline-1,3-dione] was run?
A: 1.4 ± 0.45 µM

Q: And the “type of inhibition of MAO-A” value [2, 4]?
A: pure competitive type of inhibition

Q: What about the IC50 [2] of the same molecule?
A: 0.91 ± 0.15 µM

Q: And the IC50 [3]?
A: 1.59 ± 1.66 µM

Q: O=C1c2ccccc2C(=O)N1CCSc1nnc(-c2cc(-c3ccccc3)nc3ccccc23)o1 [Compound 5b, 2-(2-(5-(2-Phenylquinolin-4-yl)-1,3,4-oxadiazol-2-ylthio)ethyl)isoindoline-1,3-dione] was tested. Which IC50 [1] did it give?
A: 2.55 ± 0.96 µM

Q: What about the IC50 [2] of the same molecule?
A: 1.81 ± 0.38 µM

Q: And the IC50 [3]?
A: 2.61 ± 2.48 µM

Q: Which “type of inhibition of AChE” value [1, 4] does the source give for O=C1c2ccccc2C(=O)N1CCCSc1nnc(-c2cc(-c3ccccc3)nc3ccccc23)o1 [Compound 5c, 2-(3-(5-(2-Phenylquinolin-4-yl)-1,3,4-oxadiazol-2-ylthio)propyl)isoindoline-1,3-dione] here?
A: pure competitive type of inhibition

Q: And the IC50 [1]?
A: 1.02 ± 0.65 µM

Q: And the IC50 [2]?
A: 3.31 ± 0.8 µM

Q: What about the IC50 [3] of the same molecule?
A: 3.39 ± 0.42 µM

Q: Which IC50 [1] does the source give for O=C1c2ccccc2C(=O)N1CCCCSc1nnc(-c2cc(-c3ccccc3)nc3ccccc23)o1 [Compound 5d, 2-(4-(5-(2-Phenylquinolin-4-yl)-1,3,4-oxadiazol-2-ylthio)butyl)isoindoline-1,3-dione] here?
A: 2.38 ± 0.92 µM

Q: What about the IC50 [2] of the same molecule?
A: 3.18 ± 1.23 µM

Q: What about the IC50 [3] of the same molecule?
A: 3.76 ± 1.04 µM

Q: Which results are given for O=C1c2ccccc2C(=O)N1CCCCCSc1nnc(-c2cc(-c3ccccc3)nc3ccccc23)o1 [Compound 5e, 2-(5-(5-(2-Phenylquinolin-4-yl)-1,3,4-oxadiazol-2-ylthio)pentyl)isoindoline-1,3-dione]?
A: IC50 [1]: 1.29 ± 0.75 µM; IC50 [2]: 4.14 ± 0.35 µM; IC50 [3]: 3.84 ± 0.91 µM

Q: What does the source list for O=C1c2ccccc2C(=O)N1CCCCCCSc1nnc(-c2cc(-c3ccccc3)nc3ccccc23)o1 [Compound 5f, 2-(6-(5-(2-Phenylquinolin-4-yl)-1,3,4-oxadiazol-2-ylthio)hexyl)isoindoline-1,3-dione]?
A: IC50 [1]: 3.32 ± 0.45 µM; IC50 [2]: 4.88 ± 1.75 µM; IC50 [3]: 0.84 ± 0.06 µM; type of inhibition of MAO-B [3, 4]: pure competitive type of inhibition

Q: FC(F)(F)c1ccc(CSc2nnc(-c3cc(-c4ccccc4)nc4ccccc34)o2)cc1 [Compound 6a, 4-(5-(4-(Trifluoromethyl)benzylthio)-1,3,4-oxadiazol-2-yl)-2-phenylquinoline] was tested. Which IC50 [1] did it give?
A: 3.23 ± 0.95 µM

Q: What about the IC50 [2] of the same molecule?
A: 1.02 µM and 1.51 µM

Q: And the IC50 [3]?
A: 3.71 ± 2.88 µM

Q: FC(F)(F)c1cccc(CSc2nnc(-c3cc(-c4ccccc4)nc4ccccc34)o2)c1 [Compound 6b, 4-(5-(3-(Trifluoromethyl)benzylthio)-1,3,4-oxadiazol-2-yl)-2-phenylquinoline] was tested. Which IC50 [1] did it give?
A: 3.54 ± 1.05 µM

Q: And the IC50 [2]?
A: 1.51 µM and 1.02 µM

Q: What about the IC50 [3] of the same molecule?
A: 2.71 ± 0.88 µM

Q: FC(F)(F)c1ccccc1CSc1nnc(-c2cc(-c3ccccc3)nc3ccccc23)o1 [Compound 6c, 4-(5-(2-(Trifluoromethyl)benzylthio)-1,3,4-oxadiazol-2-yl)-2-phenylquinoline] was tested. Which IC50 [1] did it give?
A: 4.38 ± 1.45 µM

Q: What about the IC50 [2] of the same molecule?
A: 6.81 ± 2.65 µM

Q: What about the IC50 [3] of the same molecule?
A: 5.59 ± 3.22 µM

Q: How did the IC50 [1] turn out when c1ccc(CSc2nnc(-c3cc(-c4ccccc4)nc4ccccc34)o2)cc1 [Compound 6d, 4-(5-(Benzylthio)-1,3,4-oxadiazol-2-yl)-2-phenylquinoline] was run?
A: 4.98 ± 1.85 µM

Q: And the IC50 [2]?
A: 4.16 ± 1.71 µM

Q: What about the IC50 [3] of the same molecule?
A: 2.9 ± 1.85 µM
